Test results published in patent US20100004222A1, “Amide Derivatives as Ion-Channel Ligands and Pharmaceutical Compositions and Methods of Using the Same” (Renovis, Inc., priority 2006, published 2010).
Where two headings read alike, the source gives them in different places.

Tests used:
[1] = biological target: T1, VR1 (Homo sapiens, UniProt Q8NER1); assay: Acid stimulation assay (FDSS 6000); format: cell-based; conditions: final assay buffer pH5.8, 15 min pre-incubation
Method: The Acid-induced changes in the intracellular calcium concentration were monitored using FDSS 6000 (Hamamatsu Photonics, Japan), a fluorometric imaging system. The cell suspension in resting buffer (HBSS supplemented with 10 mM HEPES, pH 7.4) was pre-incubated with varying concentrations of the test compounds or resting buffer (buffer control) for 15 minutes at room temperature under dark conditions. The cells were automatically added the stimulating solution (HBSS supplemented with MES, final assay buffer pH5.8) by the FDSS 6000.
Target sequence in this assay (Q8NER1 whole entry, species assumed): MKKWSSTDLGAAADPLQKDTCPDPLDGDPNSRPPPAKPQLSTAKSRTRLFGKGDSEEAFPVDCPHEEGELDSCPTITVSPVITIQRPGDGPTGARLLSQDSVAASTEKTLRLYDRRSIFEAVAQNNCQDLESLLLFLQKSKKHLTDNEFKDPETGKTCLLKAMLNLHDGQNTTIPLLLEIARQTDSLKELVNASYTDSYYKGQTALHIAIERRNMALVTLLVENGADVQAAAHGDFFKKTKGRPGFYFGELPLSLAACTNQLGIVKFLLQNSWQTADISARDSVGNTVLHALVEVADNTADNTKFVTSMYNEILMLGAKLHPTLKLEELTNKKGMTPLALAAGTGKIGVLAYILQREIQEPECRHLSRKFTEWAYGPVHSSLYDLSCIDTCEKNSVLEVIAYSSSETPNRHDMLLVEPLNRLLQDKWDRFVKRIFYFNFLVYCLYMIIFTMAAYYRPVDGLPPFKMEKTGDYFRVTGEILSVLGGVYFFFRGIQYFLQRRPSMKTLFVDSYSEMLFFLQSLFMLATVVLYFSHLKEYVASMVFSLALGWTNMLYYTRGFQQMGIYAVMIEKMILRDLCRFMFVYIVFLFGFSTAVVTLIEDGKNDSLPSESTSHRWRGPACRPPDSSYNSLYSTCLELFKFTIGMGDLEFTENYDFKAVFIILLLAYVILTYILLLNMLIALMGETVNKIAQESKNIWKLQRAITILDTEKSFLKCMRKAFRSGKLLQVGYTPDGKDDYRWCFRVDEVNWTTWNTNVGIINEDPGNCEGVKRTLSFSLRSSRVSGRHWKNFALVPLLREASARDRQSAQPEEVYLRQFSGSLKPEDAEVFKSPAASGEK

[2] = Pharmacokinetic evaluation following intravenous and oral administration in rats; format: in vivo; conditions: male, Sprague-Dawley, plasma, rat; for bioavailability: AUCinf (PO)/AUCinf (IV), dose normalized, PO 5 mg/kg, read-out: Oral Bioavailability F (%); for clearance: non-compartmental analysis, read-out: In vivo Clearance (converted)
Method: Male Sprague-Dawley rats are acclimatized for at least 24 hours prior to experiment initiation. During acclimation period, all animals receive food and water ad libitum. However, food but not water is removed from the animal's cages at least 12 hours before initiation of the experiment. During the first 3 hours of experimentation, the animals receive only water ad libitum. At least three animal each are tested for intravenous and oral dosage. For intravenous formulation, compounds were dissolved (0.25 to 1 mg/mL) in a mixture of 3% dimethyl sulfoxide, 40% PEG 400 and the rest percentage of 40% Captisol in water (w/v). For oral formulation, compounds of this invention are dissolved (2 mg/mL) in a mixture of 5% of 10% Tween 80 in water (v/v) and 95% of 0.5% methyl cellulose in water (w/v). The animals are weighed before dosing. The determined body weight is used to calculate the dose volume for each animal.
Dose volume(mL/kg)=1 mg/kg/formulation concentration(mg/mL)
In instances where the formulation concentrations were less than 0.5 mg/mL, the dosing volume is about 2 mL/kg. PO rats are typically dosed through oral gavage at 2.5 mL/kg to achieve a dose level of 5 mg/kg. For IV dosing, blood samples are collected (using a pre-heparinized syringe) via the jugular vein catheter at 2, 5, 15, 30, 60, 120, 180, 300, 480, and 1440 minutes post dosing. For PO dosing, blood samples are collected (using a pre-heparinized syringe) via the jugular vein catheter before dosing and at 5, 15, 30, 60, 120, 180, 300, 480, and 1440 minutes post dosing. About 250 uL of blood is obtained at each time point from the animal. Equal volumes of 0.9% normal saline are replaced to prevent dehydration. The whole blood samples are maintained on ice until centrifugation. Blood samples are then centrifuged at 14,000 rpm for 10 minutes at 4° C. and the upper plasma layer transferred into a clean vial and stored at −80° C. The resulting plasma samples are then analyzed by liquid chromatography-tandem mass spectrometry. Following the measurement of plasma samples and dosing solutions, plasma concentration-time curve is plotted. Plasma exposure is calculated as the area under the concentration-time curve extrapolated to time infinite (AUCinf). The AUCinf is averaged and the oral bioavailability (% F) for individual animal is calculated as:
AUCinf (PO)/AUCinf (IV), normalized to their respective dose levels. The % F is reported as the mean % F of all animals dosed orally with the compound of the invention at the specified level (Table 6).
In vivo clearance in the rat was calculated by conducting a non-compartmental analysis of the pharmacokinetic profile using WinNonlin software.

[3] = Half-life in human liver microsomes (HLM); format: in vitro ADME; conditions: pH 7.4, 1 μM compound, 0.78 mg/mL HLM, 37° C.
Method: Test compounds (1 μM) are incubated with 3.3 mM MgCl2 and 0.78 mg/mL HLM (HL101) in 100 mM potassium phosphate buffer (pH 7.4) at 37° C. on the 96-deep well plate. The reaction mixture is split into two groups, a non-P450 and a P450 group. NADPH is only added to the reaction mixture of the P450 group. An aliquot of samples of P450 group is collected at 0, 10, 30, and 60 min time point, where 0 min time point indicated the time when NADPH is added into the reaction mixture of P450 group. An aliquot of samples of non-P450 group is collected at −10 and 65 min time point. Collected aliquots are extracted with acetonitrile solution containing an internal standard. The precipitated protein is spun down in centrifuge (2000 rpm, 15 min). The compound concentration in supernatant is measured by LC/MS/MS system.
The half-life value is obtained by plotting the natural logarithm of the peak area ratio of compounds/internal standard versus time. The slope of the line of best fit through the points yields the rate of metabolism (k). This is converted to a half-life value using following equations: […]

[4] = biological target: T1, VR1; assay: Calcium uptake assay, low pH (proton) agonist; format: cell-based; set-up: expressed in transfected cells; host or cells: T-REx HEK 293 (Invitrogen), pcDNA5/TO vector
Target sequence in this assay (Q8NER1 whole entry): as the sequence (Q8NER1 whole entry, species assumed) above

[5] = HEK293, 0.3 μM compound, low pH (protons) as agonist, HEK 293 cells expressing hVR1, read-out: Low pH % Inhib. @ 0.3 μM

SMILES	IC50 [1] [nM]	bioavailability [2] [%]	clearance [2] [mL/min/kg]	half-life at 1 μM [3] [min]	inhibition at 0.3 µM [4, 5] [%]	inhibition at 0.3 µM ([4]; HEK293, read-out: Low pH % Inhib. @ 0.3 μM) [%]
Cc1cc(/C=C/C(F)(F)F)ccc1C(=O)Nc1cccc2c1CC(O)CC2 (racemic) [Compound 309, (E)-N-(7-hydroxy-5,6,7,8-tetrahydronaphthylen-1-yl)-2-methyl-4-(3,3,3-trifluoroprop-1-enyl)benzamide]	2	29	7.68	135	107	
Cc1cc(/C=C/C(F)(F)F)ccc1C(=O)Nc1cccc2c1C[C@H](O)CC2 (single isomer, unassigned) [Compound 314]	23				121	
Cc1cc(/C=C/C(F)(F)F)ccc1C(=O)Nc1cccc2ccc(O)cc12 [Compound 302, (E)-N-(7-hydroxynaphthalen-1-yl)-2-methyl-4-(3,3,3-trifluoroprop-1-enyl)benzamide]	1	2	67.3	36.6		
Cc1cc(/C=C/C(F)(F)F)ccc1C(=O)Nc1ccc2cc(C(C)(C)O)cnc2c1 [Compound 303, (E)-N-(3-(2-Hydroxypropan-2-yl)quinolin-7-yl)-2-methyl-4-(3,3,3-trifluoroprop-1-enyl)benzamide]	37	> 100	11.3	57.6	90	
Cc1cc(/C=C/C(F)(F)F)ccc1C(=O)Nc1ccc2cc(C(C)O)cnc2c1 (centres unmarked) [Compound 304, (E)-N-(3-(1-hydroxyethyl)quinolin-7-yl)-2-methyl-4-(3,3,3-trifluoroprop-1-enyl)benzamide]	4	> 100	20.6	51	98	
Cc1cc(/C=C/C(F)(F)F)ccc1C(=O)Nc1ccc2cc(COCCO)cnc2c1 [Compound 305, (E)-N-(3-((2-Hydroxyethoxy)methyl)quinolin-7-yl)-2-methyl-4-(3,3,3-trifluoroprop-1-enyl)benzamide]	12	> 100	11.2	16.8	105	
Cc1cc(/C=C/C(F)(F)F)ccc1C(=O)Nc1ccc2c(c1)C(O)CCC2 (centres unmarked) [Compound 307, (E)-N-(8-hydroxy-5,6,7,8-tetrahydronaphthylen-2-yl)-2-methyl-4-(3,3,3-trifluoroprop-1-enyl)benzamide]	118				75	
Cc1cc(/C=C/C(F)(F)F)ccc1C(=O)Nc1ccc2cc(C(O)CO)cnc2c1 (centres unmarked) [Compound 308, (E)-N-(3-(1,2-dihydroxyethyl)quinolin-7-yl)-2-methyl-4-(3,3,3-trifluoroprop-1-enyl)benzamide]	11	71	12.2	63	101	
Cc1cc(/C=C/C(F)(F)F)ccc1C(=O)Nc1cnc2c(c1)COC(CO)C2 (centres unmarked) [Compound 310, (E)-N-(7-hydroxymethyl-7,8-dihydro-5H-pyrano[4,3-b]pyridin-3-yl)-2-methyl-4-(3,3,3-trifluoroprop-1-enyl)benzamide]	109				71	
Cc1cc(/C=C/C(F)(F)F)ccc1C(=O)Nc1cnc2c(c1)CCCC2 [Compound 312]	103				97	
CC(=O)n1ccc2cc(NC(=O)c3ccc(/C=C/C(F)(F)F)cc3C)cnc21 [Compound 408, (E)-N-(1-acetyl-1H-pyrrolo[2,3-b]pyridin-5-yl]-2-methyl-4-(3,3,3-trifluoroprop-1-enyl)benzamide]	61					91

More lines, main results first:

IC50 [1] [nM]	bioavailability [2] [%]	clearance [2] [mL/min/kg]	half-life at 1 μM [3] [min]	inhibition at 0.3 µM [4, 5] [%]	SMILES	inhibition at 0.3 µM ([4]; HEK293, read-out: Low pH % Inhib. @ 0.3 μM) [%]
11	47	16.5	37.2	100	Cc1cc(/C=C/C(F)(F)F)ccc1C(=O)Nc1cnc2cc(CO)cnc2c1 [Compound 317, (E)-N-(7-(Hydroxymethyl)-1,5-naphthyridin-3-yl)-2-methyl-4-(3,33-trifluoroprop-1-enyl)benzamide]	
3	59	1.33	178	104	Cc1cc(/C=C/C(F)(F)F)ccc1C(=O)Nc1cnc2cccnc2c1 [Compound 318, (E)-2-methyl-N-(1,5-naphthyridin-3-yl)-4-(3,3,3-trifluoroprop-1-enyl)benzamide]	
147				72.3	Cc1cc(/C=C/C(F)(F)F)ccc1C(=O)Nc1ccc2nccnc2c1 [Compound 325, (E)-2-methyl-N-(Quinoxalin-6-yl)-4-(3,3,3-trifluoroprop-1-enyl)benzamide]	
94				88	Cc1cc(/C=C/C(F)(F)F)ccc1C(=O)Nc1ccc2c(c1)N(S(C)(=O)=O)CC2 [Compound 401, (E)-N-(1-methanesulfonyl-2,3-dihydro-1H-indol-6-yl]-2-methyl-4-(3,3,3-trifluoroprop-1-enyl)benzamide]	
147				81	Cc1cc(/C=C/C(F)(F)F)ccc1C(=O)Nc1ccc2sc(C(C)O)nc2c1 (centres unmarked) [Compound 403]	
323				45	CCC(=O)N1CCc2ccc(NC(=O)c3ccc(/C=C/C(F)(F)F)cc3C)cc21 [Compound 406, (E)-2-methyl-N-(1-propionylindoline-6-yl]-4-(3,3,3-trifluoro-prop-1-enyl)benzamide]	
32				95	Cc1cc(/C=C/C(F)(F)F)ccc1C(=O)Nc1ccc2c(c1)N(C(=O)CO)CC2 [Compound 407, (E)-N-(1-(2-hydroxyacetyl)-indolin-yl)-2-methyl-4-(3,3,3-trifluoro-Prop-1-enyl)benzamide]	
59				103	Cc1cc(/C=C/C(F)(F)F)ccc1C(=O)Nc1ccc2sc(C(C)(C)O)nc2c1 [Compound 409, (E)-N-(2-(2-hydroxypropan-2-yl)benzo[d]thiazol-5-yl)-2-methyl-4-(3,3,3-trifluoroprop-1-enyl)benzamide]	
707				12	CC(=O)c1nc2cc(NC(=O)c3ccc(/C=C/C(F)(F)F)cc3C)ccc2s1 [Compound 410, (E)-N-(2-acetylbenzo[d]thiazol-5-yl)-2-methyl-4-(3,3,3-trifluoroprop-1-enyl)benzamide]	
28				102	Cc1cc(/C=C/C(F)(F)F)ccc1C(=O)Nc1ccc2oc(CO)nc2c1 [Compound 411, (E)-N-(2-(hydroxymethyl)benzo[d]oxazol-5-yl)-2-methyl-(3,3,3-trifluoroprop-1-enyl)benzamide]	
